Experimental data as given in PMC2946083 (Bioorganic & medicinal chemistry letters, 2010).

Key:
[1] = biological target: T1, A1 AR (Homo sapiens, UniProt P30542); experiment: Radioligand binding at human A1 AR
T1 sequence (P30542 1-326): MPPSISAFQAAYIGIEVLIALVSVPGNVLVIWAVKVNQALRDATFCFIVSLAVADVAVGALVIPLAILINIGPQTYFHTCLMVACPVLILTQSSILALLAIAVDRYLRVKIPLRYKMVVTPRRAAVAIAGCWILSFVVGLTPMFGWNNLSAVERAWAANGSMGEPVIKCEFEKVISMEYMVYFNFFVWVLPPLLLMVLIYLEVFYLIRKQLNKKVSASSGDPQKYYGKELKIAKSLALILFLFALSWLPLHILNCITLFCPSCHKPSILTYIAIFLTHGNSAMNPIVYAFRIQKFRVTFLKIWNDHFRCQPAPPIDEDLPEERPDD

[2] = biological target: A2A AR (Homo sapiens, UniProt P29274); experiment: Radioligand binding at human A2A AR; conditions: A2A vs A1 and A3 ARs
Chain of A2A AR (P29274 whole entry): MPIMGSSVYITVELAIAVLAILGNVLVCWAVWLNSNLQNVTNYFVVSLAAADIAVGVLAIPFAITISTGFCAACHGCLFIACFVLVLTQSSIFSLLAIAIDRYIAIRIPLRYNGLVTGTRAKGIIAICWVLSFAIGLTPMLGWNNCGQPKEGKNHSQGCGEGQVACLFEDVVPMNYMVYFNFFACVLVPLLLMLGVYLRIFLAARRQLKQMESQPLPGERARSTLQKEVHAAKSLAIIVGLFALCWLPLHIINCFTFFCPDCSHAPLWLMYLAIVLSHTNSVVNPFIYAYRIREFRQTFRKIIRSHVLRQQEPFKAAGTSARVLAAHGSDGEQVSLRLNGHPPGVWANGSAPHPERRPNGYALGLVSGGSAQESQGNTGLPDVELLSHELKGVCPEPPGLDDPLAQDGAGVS

Ki [1]: ~10 µM
Selectivity for the A2A AR in comparison to the A1 and A3 ARs [2]: highly selective
SMILES: Nc1nc2c(cnn2CCCc2ccc(OCCF)cc2)c2nc(-c3ccco3)nn12 [Compound 5]
